Tests used:
Turnip (TP) [1] = assay: Pre-emergence herbicide test; format: in vivo, Brassica sp.; settings: Brassica rapa, pre-emergence, 336 h, two weeks after treatment; for pest or weed control at 8966.8 g/ha: 8 lb/acre
Outline: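 Turnip (Brassica sp.) seeds were surface sown in 3' plastic pots of potting soil, covered with a thin layer of screened soil, and sub-irrigated in greenhouse trays. Pots were seeded one day ahead of treatment, sprayed pre-emergence under a hood with a fixed nozzle and moving belt, then kept in the greenhouse.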

Crabgrass (CG) [2] = assay: Post-emergence herbicide test; format: in vivo, Digitaria sanquinalis; settings: Digitaria sanguinalis, post-emergence, 336 h, two weeks after treatment; for pest or weed control at 8966.8 g/ha: 8 lb/acre
Outline: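 Crabgrass (Digitaria sanquinalis) was surface seeded individually in 3' plastic pots of potting soil, covered with screened soil, and watered by sub-irrigation in greenhouse trays. Planting was staggered so seedlings reached the target stage together. Post-emergence sprays were applied in a hood with a removable belt and fixed nozzle, and control was visually rated two weeks after treatment.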

Bean (BN) [3] = assay: Post-emergence herbicide test; format: in vivo, Phaseolus vulgaris var. Black Valentine; settings: Phaseolus vulgaris, post-emergence, 336 h, two weeks after treatment; for pest or weed control at 8966.8 g/ha: 8 lb/acre
Outline: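 Snapbean (Phaseolus vulgaris var. Black Valentine) was tested post-emergence. Four seeds were sown in 3' plastic pots of potting soil at a depth equal to the seed diameter, then sub-irrigated in greenhouse trays. Planting dates were staggered so plants were sprayed once primary leaves had expanded, with the growing point at the primary leaf nodes.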

Johnson grass (JG) [4] = assay: Pre-emergence herbicide test; format: in vivo, Sorgum helepense; settings: Sorghum halepense, 336 h, two weeks after treatment; for pest or weed control at 8966.8 g/ha: 8 lb/acre
Outline: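 Pots seeded one day before spraying; compound applied pre-emergence at 8 lbs/acre (or 4 lbs/acre) in 38 gallons/acre spray volume. Sub-irrigated in greenhouse; injury/control rated visually two weeks after treatment.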

[5] = system: Yellow foxtail grass (YF); assay: Post-emergence herbicide test; format: in vivo, Setaria glauca; settings: Setaria, 336 h, two weeks after treatment; for pest or weed control at 8966.8 g/ha: 8 lb/acre
Protocol: (§1) Yellow foxtail grass (YF)--Setaria glauca
(§2) All crop and weed species were planted individually in 3' plastic pots containing potting soil. Four seeds each of corn, cotton, and snapbeans were seeded to a depth equal to the diameter of the seed. All other species were surface seeded and sprinkled with screened soil in an amount sufficient to cover the seed. Immediately after planting, all pots were watered by sub-irrigation in greenhouse trays. Pots for the pre-emergence phase were seeded one day before treatment.
Planting dates for the post-emergence phase were varied so that all seedlings would reach the desired stage of development simultaneously. The proper stage of seedling development for treatment in the post-emergence phase is as follows:
(§3) Compounds were tested at rates of application equivalent to 8 lbs. of actual compound per acre in a spray volume of 38 gallons per acre. Spray hood constants required to deliver the above volume are as follows:
(§4) Formulations for spray applications were prepared in 50 ml volumes with the following three components:
(§5) Formulations for the 4 lbs/acre rate were prepared by adjusting the amount of active ingredient accordingly.
(§6) Spray applications were made in a hood containing a removable belt and fixed spray nozzle. For passage through the spray hood, one pot of each specie (pre-emergence phase) was placed on the rear half of the flat. Treatments were removed to the greenhouse after spraying. Watering during the observation period was done only by sub-irrigation.
(§7) Two weeks after treatment, pre- and post-emergence injury or control was visually rated, and the results were as shown in the following tables. Pre-emergence data are provided in TABLE III and post-emergence data are provided in TABLE IV, for compounds having the formula illustrated in TABLE I. Correspondingly, pre-emergence and post-emergence data, respectively, are set forth in TABLES V AND VI, for compounds having the formula illustrated in TABLE II.

Amaranth pigweed (PW) [6] = assay: Post-emergence herbicide test; format: in vivo, Amaranthus retroflexus; settings: 336 h, two weeks after treatment; for pest or weed control at 8966.8 g/ha: 8 lb/acre
Outline: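 Pot-grown pigweed was sprayed post-emergence at the 1–2 true-leaf stage with compound at rates equivalent to 8 lbs per acre (formulations also prepared for 4 lbs/acre) in 38 gallons per acre, using a hood with fixed nozzle. Plants were sub-irrigated in the greenhouse, and injury or control was rated visually two weeks after treatment.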

Amaranth pigweed (PW) [7] = assay: Pre-emergence herbicide test; format: in vivo, Amaranthus retroflexus; settings: 336 h, two weeks after treatment; for pest or weed control at 8966.8 g/ha: 8 lb/acre
Outline: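 Pigweed was surface-seeded in potted soil one day before spraying at 8 lbs compound per acre, or 4 lbs/acre, in 38 gallons per acre. Pots were kept in the greenhouse with sub-irrigation only; injury or control was rated visually two weeks after treatment.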

Turnip (TP) [8] = assay: Post-emergence herbicide test; format: in vivo, Brassica sp.; settings: Brassica rapa, post-emergence, 336 h, two weeks after treatment; for pest or weed control at 8966.8 g/ha: 8 lb/acre
Outline: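 A greenhouse post-emergence herbicide test on turnip. Seeds were sown on the surface of potting soil in 3' plastic pots, lightly covered with screened soil and watered from below. Planting was timed so seedlings had 1 or 2 true leaves above the cotyledons at spraying, done in a hood with a fixed nozzle. Control or injury was scored by eye after two weeks.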

Bean (BN) [9] = assay: Pre-emergence herbicide test; format: in vivo, Phaseolus vulgaris var. Black Valentine; settings: Phaseolus vulgaris, 336 h, two weeks after treatment; for pest or weed control at 8966.8 g/ha: 8 lb/acre
Outline: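 Black Valentine bean was seeded in potting soil one day before spraying. Compound was applied pre-emergence at 8 lbs/acre (also 4 lbs/acre) in 38 gallons per acre. Plants were sub-irrigated and injury or control was rated visually after two weeks.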

Barnyard grass (BG) [10] = assay: Pre-emergence herbicide test; format: in vivo; settings: Echinochloa crus-galli, 336 h, two weeks after treatment; for pest or weed control at 8966.8 g/ha: 8 lb/acre
Outline: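 Barnyard grass surface-seeded in potting soil and sprayed pre-emergence one day after seeding, at 8 or 4 lb compound/acre in 38 gal/acre spray volume. Pots kept in greenhouse with sub-irrigation only; injury or control rated visually two weeks after treatment.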

Crabgrass (CG) [11] = assay: Pre-emergence herbicide test; format: in vivo, Digitaria sanquinalis; settings: Digitaria sanguinalis, pre-emergence, 336 h, two weeks after treatment; for pest or weed control at 8966.8 g/ha: 8 lb/acre
Outline: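 Crabgrass (Digitaria sanquinalis) was surface seeded in 3' plastic pots of potting soil, covered with screened soil, and watered by sub-irrigation in greenhouse trays. Pots were seeded one day before spraying in a hood with a moving belt and fixed nozzle. Plants stayed in the greenhouse on sub-irrigation, and pre-emergence control was rated visually two weeks after treatment.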

Corn (CN) [12] = assay: Pre-emergence herbicide test; format: in vivo; settings: Zea mays, 336 h, two weeks after treatment; for pest or weed control at 8966.8 g/ha: 8 lb/acre
Outline: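 Four corn seeds per pot, sown at seed-diameter depth one day before spraying, got soil surface treatment at 8 lbs/acre (4 lbs/acre formulations also prepared) in 38 gallons/acre. Pots were greenhouse-held with sub-irrigation only. Injury or control was scored visually two weeks after treatment.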

Barnyard grass (BG) [13] = assay: Post-emergence herbicide test; format: in vivo; settings: Echinochloa crus-galli, 336 h, two weeks after treatment; for pest or weed control at 8966.8 g/ha: 8 lb/acre
Outline: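 Greenhouse pot-grown barnyard grass seedlings sprayed post-emergence at 8 lbs active compound per acre (some at 4 lbs/acre) in 38 gallons per acre, then sub-irrigated. Injury or control rated visually two weeks after treatment.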

Cotton (CT) [14] = assay: Pre-emergence herbicide test; format: in vivo, Gossypium hirsutum var. DPL smooth leaf; settings: Gossypium hirsutum, 336 h, two weeks after treatment; for pest or weed control at 8966.8 g/ha: 8 lb/acre
Outline: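 Crop and weed species seeded one day before treatment, then sprayed pre-emergence at 8 lbs actual compound per acre (also 4 lbs/acre formulations) in 38 gallons per acre. Pots kept in greenhouse with sub-irrigation only; injury or control visually rated two weeks after treatment.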

Corn (CN) [15] = assay: Post-emergence herbicide test; format: in vivo; settings: Zea mays, 336 h, two weeks after treatment; for pest or weed control at 8966.8 g/ha: 8 lb/acre
Outline: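 Greenhouse seedlings grown in potting soil and sprayed post-emergence at 8 lbs compound/acre (formulations also made for 4 lbs/acre) in 38 gallons/acre spray volume. Watering by sub-irrigation only. Injury or control rated visually two weeks after treatment.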

[16] = system: Yellow foxtail grass (YF); assay: Pre-emergence herbicide test; format: in vivo, Setaria glauca; settings: Setaria, 336 h, two weeks after treatment; for pest or weed control at 8966.8 g/ha: 8 lb/acre
Protocol: as §1, §2, §3, §4, §5, §6, §7

Johnson grass (JG) [17] = assay: Post-emergence herbicide test; format: in vivo, Sorgum helepense; settings: Sorghum halepense, 336 h, two weeks after treatment; for pest or weed control at 8966.8 g/ha: 8 lb/acre
Outline: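 Greenhouse pot-grown seedlings sprayed post-emergence at 8 lbs compound per acre (some at 4 lbs/acre) in 38 gallons per acre spray volume. Sub-irrigated thereafter. Injury/control rated visually two weeks after treatment.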

Cotton (CT) [18] = assay: Post-emergence herbicide test; format: in vivo, Gossypium hirsutum var. DPL smooth leaf; settings: Gossypium hirsutum, post-emergence, 336 h, two weeks after treatment; for pest or weed control at 8966.8 g/ha: 8 lb/acre
Outline: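 Cotton (Gossypium hirsutum var. DPL smooth leaf) was grown in 3' plastic pots of potting soil, four seeds per pot, planted at a depth equal to the seed diameter and watered by sub-irrigation. At the stage of expanded cotyledons with the first true leaf 1' long, plants were sprayed post-emergence in a hood with a fixed nozzle over a moving belt. Percent control was rated visually two weeks later.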

SMILES | pest or weed control at 8966.8 g/ha (Turnip (TP) [1]) | pest or weed control at 8966.8 g/ha (Crabgrass (CG) [2]) | pest or weed control at 8966.8 g/ha (Bean (BN) [3]) | pest or weed control at 8966.8 g/ha (Johnson grass (JG) [4]) | pest or weed control at 8966.8 g/ha [5] | pest or weed control at 8966.8 g/ha (Amaranth pigweed (PW) [6]) | pest or weed control at 8966.8 g/ha (Amaranth pigweed (PW) [7]) | pest or weed control at 8966.8 g/ha (Turnip (TP) [8]) | pest or weed control at 8966.8 g/ha (Bean (BN) [9]) | pest or weed control at 8966.8 g/ha (Barnyard grass (BG) [10]) | pest or weed control at 8966.8 g/ha (Crabgrass (CG) [11]) | pest or weed control at 8966.8 g/ha (Corn (CN) [12]) | pest or weed control at 8966.8 g/ha (Barnyard grass (BG) [13]) | pest or weed control at 8966.8 g/ha (Cotton (CT) [14]) | pest or weed control at 8966.8 g/ha (Corn (CN) [15]) | pest or weed control at 8966.8 g/ha [16] | pest or weed control at 8966.8 g/ha (Johnson grass (JG) [17]) | pest or weed control at 8966.8 g/ha (Cotton (CT) [18]) | further results
CCCNC(=O)Nc1nnc(SC)s1 [Example 29] | 0% | 30% | 100% | 10% | 20% | 40% | 10% | 40% | 80% | 10% | 20% | 30% | 20% | 30% | 20% | 10% | 20% | 60% | –
C=CCNC(=O)Nc1nnc(SC)s1 [Example 31] | 30% | 30% | 100% | 20% | 30% | 90% | 20% | 50% | 80% | 30% | 70% | 10% | 20% | 30% | 20% | 70% | 30% | 100% | –
CN(C)C(=O)N(C)c1nnc(C(F)(F)F)s1 [Example 4, 1,1,3-Trimethyl-3-[5-Trifluoromethyl-2-(1,3,4-Thiadiazolyl)] Urea] | – | – | – | – | – | – | – | – | – | – | – | – | – | – | – | – | – | – | pest or weed control at 4483.4 g/ha (Turnip (TP) [1]; 4 lb/acre): 100%; pest or weed control at 4483.4 g/ha (Crabgrass (CG) [2]; 4 lb/acre): 80%; pest or weed control at 4483.4 g/ha (Bean (BN) [3]; 4 lb/acre): 100%; pest or weed control at 4483.4 g/ha (Johnson grass (JG) [4]; 4 lb/acre): 40%; pest or weed control at 4483.4 g/ha ([5]; 4 lb/acre): 90%; pest or weed control at 4483.4 g/ha (Amaranth pigweed (PW) [6]; 4 lb/acre): 100%; pest or weed control at 4483.4 g/ha (Amaranth pigweed (PW) [7]; 4 lb/acre): 100%; pest or weed control at 4483.4 g/ha (Turnip (TP) [8]; 4 lb/acre): 100%; pest or weed control at 4483.4 g/ha (Bean (BN) [9]; 4 lb/acre): 90%; pest or weed control at 4483.4 g/ha (Barnyard grass (BG) [10]; 4 lb/acre): 90%; pest or weed control at 4483.4 g/ha (Crabgrass (CG) [11]; 4 lb/acre): 100%; pest or weed control at 4483.4 g/ha (Corn (CN) [12]; 4 lb/acre): 70%; pest or weed control at 4483.4 g/ha (Barnyard grass (BG) [13]; 4 lb/acre): 60%; pest or weed control at 4483.4 g/ha (Cotton (CT) [14]; 4 lb/acre): 70%; pest or weed control at 4483.4 g/ha (Corn (CN) [15]; 4 lb/acre): 100%; pest or weed control at 4483.4 g/ha ([16]; 4 lb/acre): 80%; pest or weed control at 4483.4 g/ha (Johnson grass (JG) [17]; 4 lb/acre): 40%; pest or weed control at 4483.4 g/ha (Cotton (CT) [18]; 4 lb/acre): 100%
CNC(=O)Nc1nnc(OC)s1 [Example 24] | 10% | 30% | – | 10% | 20% | 90% | 60% | 60% | 60% | 10% | 10% | 30% | 20% | 10% | 20% | 10% | 20% | 70% | –

Source: patent publication US4175081A, “5-Substituted thiadiazole ureas” (priority 1977, dated 1979)
